From PMC8213057, “Targeting ALK2: An Open Science Approach to Developing Therapeutics for the Treatment of Diffuse Intrinsic Pontine Glioma” (Journal of Medicinal Chemistry, 2020)

Key:
MLK1/MAP3K9 = MLK1/MAP3K9 (Homo sapiens, UniProt P80192); assay: biochemical; conditions: read-out: % enzyme activity, 1 μM; Run 1, Run 2
CHK1 = biological target: T1, CHK1 (Homo sapiens, UniProt O14757); conditions: 1 μM; Run 1, Run 2
T1 sequence (O14757 1-476): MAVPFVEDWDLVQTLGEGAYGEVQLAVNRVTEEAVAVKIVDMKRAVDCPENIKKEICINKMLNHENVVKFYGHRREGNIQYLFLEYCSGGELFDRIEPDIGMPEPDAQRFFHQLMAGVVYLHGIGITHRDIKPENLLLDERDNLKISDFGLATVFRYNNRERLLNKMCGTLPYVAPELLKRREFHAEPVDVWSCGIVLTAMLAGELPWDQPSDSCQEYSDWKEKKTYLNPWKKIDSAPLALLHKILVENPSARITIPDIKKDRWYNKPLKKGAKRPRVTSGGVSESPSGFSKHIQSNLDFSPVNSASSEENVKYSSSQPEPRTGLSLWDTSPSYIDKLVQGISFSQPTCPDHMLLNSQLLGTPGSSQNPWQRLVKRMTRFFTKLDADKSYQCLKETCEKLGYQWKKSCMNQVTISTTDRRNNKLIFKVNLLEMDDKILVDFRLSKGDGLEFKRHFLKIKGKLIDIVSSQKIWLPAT

STK38L/NDR2 = STK38L/NDR2 (Homo sapiens, UniProt Q9Y2H1); assay: biochemical; conditions: read-out: % enzyme activity, 1 μM; Run 1, Run 2
STK38L/NDR2, sequence (Q9Y2H1 whole entry): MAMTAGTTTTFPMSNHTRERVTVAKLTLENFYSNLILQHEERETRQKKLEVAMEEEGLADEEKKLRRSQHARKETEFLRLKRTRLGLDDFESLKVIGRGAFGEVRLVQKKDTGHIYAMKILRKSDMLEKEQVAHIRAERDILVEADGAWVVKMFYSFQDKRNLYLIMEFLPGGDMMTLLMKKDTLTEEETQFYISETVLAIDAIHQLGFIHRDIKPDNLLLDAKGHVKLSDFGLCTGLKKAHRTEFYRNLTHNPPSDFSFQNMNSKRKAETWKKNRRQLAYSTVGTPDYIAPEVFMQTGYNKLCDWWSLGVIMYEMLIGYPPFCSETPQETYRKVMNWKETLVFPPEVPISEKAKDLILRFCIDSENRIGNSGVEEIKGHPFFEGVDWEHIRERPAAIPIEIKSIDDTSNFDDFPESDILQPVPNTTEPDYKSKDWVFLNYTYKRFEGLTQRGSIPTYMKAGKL

BRSK1 = biological target: T2, BRSK1 (Homo sapiens, UniProt Q8TDC3); assay: biochemical; conditions: read-out: % enzyme activity, 1 μM; Run 1, Run 2
T2 sequence (Q8TDC3 1-778): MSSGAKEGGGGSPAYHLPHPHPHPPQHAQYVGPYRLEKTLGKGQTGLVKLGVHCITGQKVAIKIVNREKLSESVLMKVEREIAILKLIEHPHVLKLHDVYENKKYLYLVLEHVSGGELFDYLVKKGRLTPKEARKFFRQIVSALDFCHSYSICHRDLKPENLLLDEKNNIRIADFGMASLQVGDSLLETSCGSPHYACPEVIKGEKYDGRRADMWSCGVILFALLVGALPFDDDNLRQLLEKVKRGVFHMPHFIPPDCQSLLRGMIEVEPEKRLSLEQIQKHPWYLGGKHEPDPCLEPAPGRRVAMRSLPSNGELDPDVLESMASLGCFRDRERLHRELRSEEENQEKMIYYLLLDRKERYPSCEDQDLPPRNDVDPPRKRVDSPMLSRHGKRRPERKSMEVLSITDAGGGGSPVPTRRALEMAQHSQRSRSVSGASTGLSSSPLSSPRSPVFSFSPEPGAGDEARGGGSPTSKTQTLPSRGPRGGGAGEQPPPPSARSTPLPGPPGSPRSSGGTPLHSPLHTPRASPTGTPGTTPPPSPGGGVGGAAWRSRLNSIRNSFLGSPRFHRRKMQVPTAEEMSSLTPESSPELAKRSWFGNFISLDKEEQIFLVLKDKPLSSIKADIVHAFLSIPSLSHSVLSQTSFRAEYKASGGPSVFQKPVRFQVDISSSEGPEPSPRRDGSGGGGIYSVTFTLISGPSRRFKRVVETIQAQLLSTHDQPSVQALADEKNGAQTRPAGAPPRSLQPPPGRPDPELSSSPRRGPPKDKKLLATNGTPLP

AURORA B = AURORA B (Homo sapiens, UniProt Q96GD4); assay: biochemical; conditions: read-out: % enzyme activity, 1 μM; Run 1, Run 2
AURORA B, sequence (Q96GD4 whole entry): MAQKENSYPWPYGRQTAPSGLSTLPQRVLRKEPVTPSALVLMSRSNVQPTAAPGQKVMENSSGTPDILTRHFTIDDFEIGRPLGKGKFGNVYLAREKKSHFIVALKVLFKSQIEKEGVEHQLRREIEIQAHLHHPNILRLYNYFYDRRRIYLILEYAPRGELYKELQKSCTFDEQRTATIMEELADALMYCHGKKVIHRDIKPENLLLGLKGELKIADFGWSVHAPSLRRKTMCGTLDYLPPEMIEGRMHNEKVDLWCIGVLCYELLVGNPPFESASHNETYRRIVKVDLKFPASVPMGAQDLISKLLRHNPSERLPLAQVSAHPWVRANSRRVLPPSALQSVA

NEK6 = NEK6 (Homo sapiens, UniProt Q9HC98); conditions: 1 μM; Run 1, Run 2
NEK6, sequence (Q9HC98 whole entry): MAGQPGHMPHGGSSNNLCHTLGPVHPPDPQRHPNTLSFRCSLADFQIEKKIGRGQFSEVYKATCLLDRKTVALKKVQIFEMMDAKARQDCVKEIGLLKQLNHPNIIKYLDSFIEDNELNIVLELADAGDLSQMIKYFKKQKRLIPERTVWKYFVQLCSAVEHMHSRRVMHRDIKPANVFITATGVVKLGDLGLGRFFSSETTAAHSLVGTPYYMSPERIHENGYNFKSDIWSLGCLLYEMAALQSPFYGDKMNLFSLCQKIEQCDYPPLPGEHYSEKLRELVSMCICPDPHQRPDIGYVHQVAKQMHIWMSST

ULK1 = biological target: T3, ULK1 (Homo sapiens, UniProt O75385); assay: biochemical; conditions: read-out: % enzyme activity, 1 μM; Run 1, Run 2
T3 sequence (O75385 1-1050): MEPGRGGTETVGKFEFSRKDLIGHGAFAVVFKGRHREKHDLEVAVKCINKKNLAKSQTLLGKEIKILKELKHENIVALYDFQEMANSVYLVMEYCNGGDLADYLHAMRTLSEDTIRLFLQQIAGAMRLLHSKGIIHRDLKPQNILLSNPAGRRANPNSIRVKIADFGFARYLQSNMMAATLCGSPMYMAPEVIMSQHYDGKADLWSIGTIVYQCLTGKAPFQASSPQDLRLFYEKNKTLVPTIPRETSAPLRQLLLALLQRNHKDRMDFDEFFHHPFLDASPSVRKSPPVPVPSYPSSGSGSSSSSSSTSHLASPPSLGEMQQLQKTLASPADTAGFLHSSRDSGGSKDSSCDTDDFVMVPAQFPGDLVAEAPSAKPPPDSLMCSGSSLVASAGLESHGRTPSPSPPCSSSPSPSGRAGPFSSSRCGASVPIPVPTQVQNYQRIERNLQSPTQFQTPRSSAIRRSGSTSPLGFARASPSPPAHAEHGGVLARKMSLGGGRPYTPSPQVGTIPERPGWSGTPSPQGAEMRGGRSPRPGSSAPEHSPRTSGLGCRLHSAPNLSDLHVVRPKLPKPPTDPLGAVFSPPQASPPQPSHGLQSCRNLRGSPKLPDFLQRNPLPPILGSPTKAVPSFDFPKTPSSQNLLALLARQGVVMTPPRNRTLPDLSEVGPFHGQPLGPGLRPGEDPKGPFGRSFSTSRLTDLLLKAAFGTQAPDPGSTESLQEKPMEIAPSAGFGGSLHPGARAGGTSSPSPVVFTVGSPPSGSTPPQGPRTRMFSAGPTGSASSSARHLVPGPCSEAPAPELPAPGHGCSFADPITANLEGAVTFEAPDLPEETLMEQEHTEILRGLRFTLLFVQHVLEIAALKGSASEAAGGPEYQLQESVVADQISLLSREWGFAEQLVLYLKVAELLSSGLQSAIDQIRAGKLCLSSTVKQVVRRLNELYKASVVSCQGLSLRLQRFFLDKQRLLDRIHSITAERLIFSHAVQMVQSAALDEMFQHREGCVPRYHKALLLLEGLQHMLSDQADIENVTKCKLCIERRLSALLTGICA

MLK3/MAP3K11 = MLK3/MAP3K11 (Homo sapiens, UniProt Q16584); conditions: 1 μM; Run 1, Run 2
HIPK1 = HIPK1 (Homo sapiens, UniProt Q86Z02); conditions: 1 μM; Run 1, Run 2
HIPK1, sequence (Q86Z02 whole entry): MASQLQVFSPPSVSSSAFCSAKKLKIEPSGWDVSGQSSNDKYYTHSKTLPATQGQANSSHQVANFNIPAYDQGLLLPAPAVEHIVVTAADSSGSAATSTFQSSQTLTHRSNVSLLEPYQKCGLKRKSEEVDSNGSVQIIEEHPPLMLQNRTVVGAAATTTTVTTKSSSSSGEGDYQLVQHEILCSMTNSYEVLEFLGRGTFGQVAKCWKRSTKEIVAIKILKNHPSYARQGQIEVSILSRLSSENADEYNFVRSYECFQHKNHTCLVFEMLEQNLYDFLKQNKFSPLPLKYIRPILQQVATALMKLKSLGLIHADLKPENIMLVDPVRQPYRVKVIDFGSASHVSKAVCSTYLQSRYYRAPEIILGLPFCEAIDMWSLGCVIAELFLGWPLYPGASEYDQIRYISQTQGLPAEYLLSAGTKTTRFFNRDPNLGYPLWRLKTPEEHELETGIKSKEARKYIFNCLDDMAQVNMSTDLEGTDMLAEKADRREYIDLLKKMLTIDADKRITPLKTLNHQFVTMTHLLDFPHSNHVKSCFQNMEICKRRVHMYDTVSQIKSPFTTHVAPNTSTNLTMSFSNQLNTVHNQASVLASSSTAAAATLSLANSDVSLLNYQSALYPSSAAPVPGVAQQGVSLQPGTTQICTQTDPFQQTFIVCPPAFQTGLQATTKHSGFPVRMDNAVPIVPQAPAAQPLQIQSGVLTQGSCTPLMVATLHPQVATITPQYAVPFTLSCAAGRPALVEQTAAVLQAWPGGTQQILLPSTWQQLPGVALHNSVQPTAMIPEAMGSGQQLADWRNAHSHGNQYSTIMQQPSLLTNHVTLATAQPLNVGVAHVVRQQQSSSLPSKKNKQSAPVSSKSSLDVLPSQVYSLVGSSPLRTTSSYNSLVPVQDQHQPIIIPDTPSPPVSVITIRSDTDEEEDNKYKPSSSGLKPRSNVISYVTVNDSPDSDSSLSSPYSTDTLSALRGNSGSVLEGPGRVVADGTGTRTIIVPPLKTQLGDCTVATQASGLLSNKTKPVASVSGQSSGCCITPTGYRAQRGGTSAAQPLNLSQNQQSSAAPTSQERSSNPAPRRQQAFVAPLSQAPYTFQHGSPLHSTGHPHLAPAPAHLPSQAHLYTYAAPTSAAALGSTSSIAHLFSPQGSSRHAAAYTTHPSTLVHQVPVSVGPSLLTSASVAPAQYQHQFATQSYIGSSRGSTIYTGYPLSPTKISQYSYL

FGFR4 = FGFR4 (Homo sapiens, UniProt P22455); conditions: 1 μM; Run 1, Run 2
FGFR4, sequence (P22455 22-802): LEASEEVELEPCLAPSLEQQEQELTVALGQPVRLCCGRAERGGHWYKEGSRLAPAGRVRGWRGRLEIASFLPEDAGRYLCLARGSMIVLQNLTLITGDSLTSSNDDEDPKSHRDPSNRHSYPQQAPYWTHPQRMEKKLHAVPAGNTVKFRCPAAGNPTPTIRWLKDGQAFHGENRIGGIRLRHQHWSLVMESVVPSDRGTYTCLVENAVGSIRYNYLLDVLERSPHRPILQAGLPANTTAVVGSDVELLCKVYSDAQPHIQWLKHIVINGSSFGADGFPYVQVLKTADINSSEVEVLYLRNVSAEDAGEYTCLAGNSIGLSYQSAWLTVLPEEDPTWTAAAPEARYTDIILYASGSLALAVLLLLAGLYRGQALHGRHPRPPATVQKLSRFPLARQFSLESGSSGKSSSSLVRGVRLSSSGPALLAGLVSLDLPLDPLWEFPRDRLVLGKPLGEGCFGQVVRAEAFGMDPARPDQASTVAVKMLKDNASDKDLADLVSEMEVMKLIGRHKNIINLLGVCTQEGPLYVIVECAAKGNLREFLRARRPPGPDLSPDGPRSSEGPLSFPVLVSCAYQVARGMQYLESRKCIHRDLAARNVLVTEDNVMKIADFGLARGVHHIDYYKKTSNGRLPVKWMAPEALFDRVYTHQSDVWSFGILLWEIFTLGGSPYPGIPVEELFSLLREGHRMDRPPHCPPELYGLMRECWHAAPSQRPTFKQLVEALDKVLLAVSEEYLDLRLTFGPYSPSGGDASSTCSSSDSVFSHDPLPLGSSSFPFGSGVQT

CAMK1d = CAMK1d (Homo sapiens, UniProt Q8IU85); conditions: 1 μM; Run 1, Run 2
CAMK1d, sequence (Q8IU85 whole entry): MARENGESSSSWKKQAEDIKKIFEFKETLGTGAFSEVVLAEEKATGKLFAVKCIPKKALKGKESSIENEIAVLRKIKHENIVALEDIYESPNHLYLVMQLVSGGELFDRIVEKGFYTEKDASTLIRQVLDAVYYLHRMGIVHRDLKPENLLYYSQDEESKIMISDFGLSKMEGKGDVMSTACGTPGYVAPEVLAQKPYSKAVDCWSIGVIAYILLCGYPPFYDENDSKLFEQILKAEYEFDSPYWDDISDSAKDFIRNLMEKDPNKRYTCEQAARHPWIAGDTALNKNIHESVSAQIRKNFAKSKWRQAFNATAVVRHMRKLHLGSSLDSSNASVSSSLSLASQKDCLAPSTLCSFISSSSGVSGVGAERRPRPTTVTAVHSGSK

TESK1 = TESK1 (Homo sapiens, UniProt Q15569); conditions: 1 μM; Run 1, Run 2
TESK1, sequence (Q15569 whole entry): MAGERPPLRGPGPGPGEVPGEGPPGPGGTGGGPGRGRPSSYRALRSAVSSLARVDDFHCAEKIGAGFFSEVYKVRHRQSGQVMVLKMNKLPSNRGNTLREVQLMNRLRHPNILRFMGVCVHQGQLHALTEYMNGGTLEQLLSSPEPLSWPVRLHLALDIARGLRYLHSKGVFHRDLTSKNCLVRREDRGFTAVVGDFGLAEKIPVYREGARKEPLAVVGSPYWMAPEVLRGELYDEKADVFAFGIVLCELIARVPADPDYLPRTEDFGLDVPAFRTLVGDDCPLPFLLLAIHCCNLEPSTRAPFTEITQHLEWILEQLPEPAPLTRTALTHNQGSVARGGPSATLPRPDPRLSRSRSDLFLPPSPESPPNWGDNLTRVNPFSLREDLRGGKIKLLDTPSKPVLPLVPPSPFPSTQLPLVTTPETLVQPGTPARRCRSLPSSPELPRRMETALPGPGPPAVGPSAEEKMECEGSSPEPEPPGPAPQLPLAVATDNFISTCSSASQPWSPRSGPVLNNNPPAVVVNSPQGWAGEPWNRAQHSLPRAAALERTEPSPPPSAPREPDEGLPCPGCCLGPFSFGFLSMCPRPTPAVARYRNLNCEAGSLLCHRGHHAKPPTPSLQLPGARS

MSK2/RPS6KA4 = MSK2/RPS6KA4 (Homo sapiens, UniProt O75676); assay: biochemical; conditions: read-out: % enzyme activity, 1 μM; Run 1, Run 2
MSK2/RPS6KA4, sequence (O75676 whole entry): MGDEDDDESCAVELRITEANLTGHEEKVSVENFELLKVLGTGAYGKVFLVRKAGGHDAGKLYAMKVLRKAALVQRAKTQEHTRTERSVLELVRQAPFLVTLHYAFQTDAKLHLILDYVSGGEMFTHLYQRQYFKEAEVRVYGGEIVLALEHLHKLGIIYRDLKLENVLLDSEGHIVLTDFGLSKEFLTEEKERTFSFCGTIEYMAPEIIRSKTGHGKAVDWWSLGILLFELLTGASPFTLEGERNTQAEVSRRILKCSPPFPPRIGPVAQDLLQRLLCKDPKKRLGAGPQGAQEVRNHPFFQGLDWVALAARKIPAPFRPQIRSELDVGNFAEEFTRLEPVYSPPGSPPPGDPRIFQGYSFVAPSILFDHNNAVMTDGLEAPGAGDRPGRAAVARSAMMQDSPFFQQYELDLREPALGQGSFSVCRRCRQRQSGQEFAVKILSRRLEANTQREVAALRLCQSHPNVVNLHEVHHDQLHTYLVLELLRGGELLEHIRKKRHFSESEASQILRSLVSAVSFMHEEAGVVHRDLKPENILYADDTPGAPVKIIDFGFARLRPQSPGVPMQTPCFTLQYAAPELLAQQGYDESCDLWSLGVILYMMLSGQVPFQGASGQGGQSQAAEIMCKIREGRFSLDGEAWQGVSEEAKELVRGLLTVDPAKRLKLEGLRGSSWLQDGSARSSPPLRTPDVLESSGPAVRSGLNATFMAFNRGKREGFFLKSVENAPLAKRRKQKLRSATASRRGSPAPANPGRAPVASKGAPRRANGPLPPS

| Compound | remaining activity at 1 µM (MLK1/MAP3K9) | % enzyme activity (CHK1) | remaining activity at 1 µM (STK38L/NDR2) | remaining activity at 1 µM (BRSK1) | remaining activity at 1 µM (AURORA B) | % enzyme activity (NEK6) | remaining activity at 1 µM (ULK1) | % enzyme activity (MLK3/MAP3K11) | % enzyme activity (HIPK1) | % enzyme activity (FGFR4) | % enzyme activity (CAMK1d) | % enzyme activity (TESK1) | remaining activity at 1 µM (MSK2/RPS6KA4) |
| --- | --- | --- | --- | --- | --- | --- | --- | --- | --- | --- | --- | --- | --- |
| COc1cc(-c2cncc(-c3ccc(N4CCN(C)CC4)cc3)c2C)cc(F)c1C(N)=O [Compound 26a, 2-Fluoro-6-methoxy-4-(4-methyl-5-(4-(4-methylpiperazin-1-yl)phenyl)pyridin-3-yl)benzamide] | 112% | 94.26% | 99.4% | 84.7% | 102% | 98.81% | 84.7% | 99.32% | 102.36% | 97.61% | 98.20% | 108.88% | 97.1% |
| COc1cc(-c2cncc(-c3ccc(N4C[C@@H](C)N(C)[C@@H](C)C4)cc3)c2C)cc(F)c1C(N)=O [Compound 26c, 2-Fluoro-6-methoxy-4-(4-methyl-5-(4-((3R,5S)-3,4,5-trimethylpiperazin-1-yl)phenyl)pyridin-3-yl)benzamide] | 99.8% | 100.95% | 104% | 84% | 105% | 103.36% | 89.8% | 96.66% | 96.64% | 98.99% | 97.72% | 105.23% | 95.4% |
